For one compound, AUC(0-t) results are on record in ChEMBL document CHEMBL4616640, “Discovery of novel pyrrole derivatives as potent agonists for the niacin receptor GPR109A” (Bioorg Med Chem Lett, 2020).

A short description of the series: AUC (0 to 7 hrs) in rat at 10 mg/kg, po. It is filed as ADME, organism-based. On the set-up: dose 10 mg/kg, time < 7 hr, route oral. To be noted: in vivo.

As a reminder, the AUC(0-t) is exposure summed from dosing to a finite time, without extrapolation to infinity. Higher therefore signals more exposure. As for `CCCCn1cc(NC(=O)CCc2nc(-c3ccc(O)cn3)no2)c(C(=O)O)c1`, the AUC(0-t) at 7 h stood at 0.63 µg·h/mL.
